The subject of assay [1] is TNS & CRAB-2 receptors. The experiment in a line: cDNA-macroarrays confirmed by quantitative RT-PCR on messenger RNAs of epidermal cells: TNS & CRAB-2 receptor expression. Format: cell-based.
The test system of assay [2] is men with alopecia (proportion of hair in the telogen phase greater than 15%). The experiment in a line: Anti-hair loss study by videotrichogram on volunteers with alopecia. The format is in vivo, human. The conditions noted are these: used as active ingredient in an anti-hair loss composition already containing Lentinus edodes extract, procyanidolic oligomers and Cananga odorata essential oil. The text has this: The anti-ageing effect on the epidermis was confirmed in vivo in a study relating to the anti-hair loss properties of (2S,3R,4S)-4-hydroxyisoleucine carried out on volunteer subjects affected by alopecia, having a proportion of hair in the telogen phase greater than […] 15%. […] This anti-hair loss composition is described in application FR 2 776 184 of which the applicant is proprietor. It contains an aqueous extract of the mushroom Lentinus edodes rich in 1,3-β-D-1,6-β-D-glucan, procyanidolic oligomers extracted from grapeseed cuticle, and essential oil extracted from the flowers of Cananga odorata. […]
This study was carried out on a sample of 25 volunteers for each composition tested. The only people included in the study were men from 20 to 50 years old (average age of each group 37 years) with alopecia, that is to say having a proportion of hair in the telogen phase, determined by videotrichogram, greater than 15%.
The apparatus used is a videomicroscope equipped with a ×25 lens, which is mobile and optical fibre-based, linked to a computer system for image acquisition. The lens is placed directly over the zone to be studied, the image is digitized, recorded and analysed with the aid of a specific software (COUNTHAIR®) developed by the company DERMSCAN which makes it possible to count the hair strands and to measure their length. […]

Assay [3] deals with Cellular Retinoic Acid Binding Protein (CRAB-P-2). The experiment in a line: cDNA-macroarrays confirmed by quantitative RT-PCR on messenger RNAs of epidermal cells: CRAB-P-2 expression. The format is cell-based.
Assay [4] deals with JL1-R1 receptor. The experiment in a line: cDNA-macroarrays confirmed by quantitative RT-PCR on messenger RNAs of epidermal cells: JL1-R1 receptor expression. Format: cell-based.
Assay [5] deals with Bullous Pemphigoid Antigen 1 (BPAG-1). The experiment in a line: cDNA-macroarrays confirmed by quantitative RT-PCR on messenger RNAs of epidermal cells: BPAG-1 expression. Format: cell-based.

Consider `C[C@@H]([C@H](C)O)[C@H](N)C(=O)O` [(2S,3R,4S)-4-hydroxyisoleucine], for which, in assay [1], the “expression of the TNS & CRAB-2 receptors” value is reported as “decrease in the expression”. Also, in assay [2], the anti-hair loss properties entry was “particularly effective”. In assay [3], the “expression of Cellular Retinoic Acid Binding Protein (CRAB-P-2)” value is reported as “significant underexpression”. The “expression of the JL1-R1 receptor” value in assay [4] was “significant overexpression”. Further, the “expression of Bullous Pemphigoid Antigen 1 (BPAG-1)” value in assay [5] is reported as “significant overexpression”.
